In paper PMC10175918 (Communications Biology, 2023):

Biological target: T1, FLAG-UTS2R (Homo sapiens, UniProt Q9UKP6)
T1 construct: expressed in transfected cells; host or cells: HEK293
Assay: Competitive binding assay: biotin-UT2 pulldown of FLAG-UTS2R from HEK293 membrane fraction
Details: membrane fraction of HEK293 cells expressing FLAG-UTS2R, streptavidin beads, western blot
Method: HEK293 cells were transfected with the plasmid encoding FLAG-UTS2R and were serum-starved for 6 h before experimentation. Cells were washed twice with ice-cold PBS. Hypotonic solution (50 mM HEPES, pH 7.5 with protease inhibitor cocktails) was added to the cell plate, and the cells were harvested by scraping. Cells were homogenized using a dounce homogenizer (IKA EUROSTAR 20 digital) at 2,000 rpm for 20 strokes at 4 °C, and further homogenized using a tissue rupture (Qiagen) for 5 s at 4 °C. The homogenate was centrifuged at 800 x g for 10 min at 4 °C to remove unbroken cells and the nucleus. The supernatant was further centrifuged at 30,000×g for 30 min at 4° (CP80NX, himac). The resulting pellet was used as crude membrane fraction and was suspended in hyperosmotic solution (50 mM HEPES, pH 7.5, 250 mM NaCl, 2 mM EDTA with protease inhibitor).
The biotin-UT2-bound UTS2R complex was solubilized using a hyperosmotic buffer containing detergent (N-Dodecyl-β-D-maltopyranoside; DDM, 5× CMC) and pulled down using streptavidin magnetic beads. The suitable beads for the experiment were selected from 5 types (Supplementary Fig. 1d, Dynabeads Streptavidin Trial Kit, Thermo Fisher, and Streptavidin magnetic beads, NEB) and denatured with SDS buffer. […]

T1 sequence (Q9UKP6 whole entry): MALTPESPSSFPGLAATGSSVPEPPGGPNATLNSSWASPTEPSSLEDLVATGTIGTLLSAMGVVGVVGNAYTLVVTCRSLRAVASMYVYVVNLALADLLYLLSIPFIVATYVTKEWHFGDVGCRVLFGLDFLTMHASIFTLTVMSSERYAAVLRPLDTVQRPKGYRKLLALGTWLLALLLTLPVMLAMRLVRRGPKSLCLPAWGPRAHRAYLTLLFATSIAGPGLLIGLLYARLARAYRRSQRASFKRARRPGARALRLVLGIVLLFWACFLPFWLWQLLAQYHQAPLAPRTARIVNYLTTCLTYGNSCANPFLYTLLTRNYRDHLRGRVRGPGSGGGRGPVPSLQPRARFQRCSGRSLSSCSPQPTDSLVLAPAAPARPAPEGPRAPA

Question: With `CCC(CC)COC(=O)[C@H](C)N[P@](=O)(OC[C@H]1O[C@@](C#N)(c2ccc3c(N)ncnn23)[C@H](O)[C@@H]1O)Oc1ccccc1` [remdesivir] as the compound, how does the “biotin–UT2-mediated UTS2R pulldown” value read?
Answer: The value was “significantly impaired”.
